Drawing on ChEMBL document CHEMBL2424520, “Screening and evaluation of small organic molecules as ClpB inhibitors and potential antimicrobials” (J Med Chem, 2013), this text covers IC50, Activity and ΔTm for five compounds.

Activity calls are given as the source filed them. The rule behind the calls is not given here.

The nature of one experiment: Inhibition of DNAK (unknown origin) assessed as reactivation of luciferase aggregates after 2 hrs.
Regarding `O=C(Nc1cccc([N+](=O)[O-])c1)c1sc2cccc(Cl)c2c1Cl`, the concentration for half-maximal inhibition (IC50) (as a rule, the concentration that inhibits the measured activity by half) was > 100 µM.

With `C(=C\C=C\Nc1ccccc1)/C=C/Nc1ccccc1`, the IC50 came to 100 µM.

Take `Cc1c(Cl)c([N+](=O)[O-])nn1CC(=O)Nc1cc(Oc2ccc(Cl)cc2Cl)cc([N+](=O)[O-])c1`: the IC50 is > 100 µM.

The next experiment can be described thus: Inhibition of DNAK/CLPB (unknown origin) assessed as reactivation of malate dehydrogenase aggregates after 2 hrs.
`O=C(Nc1cccc([N+](=O)[O-])c1)c1sc2cccc(Cl)c2c1Cl`: the IC50 came out at 90 µM.

For the compound `COCCCN1C(=O)C(=C2C(=O)Nc3ccc(Br)cc32)SC1=S`, the 50% inhibitory concentration (IC50) was > 100 µM.

As for `C(=C\C=C\Nc1ccccc1)/C=C/Nc1ccccc1`, the IC50 was > 100 µM.

For the compound `Cc1c(Cl)c([N+](=O)[O-])nn1CC(=O)Nc1cc(Oc2ccc(Cl)cc2Cl)cc([N+](=O)[O-])c1`, the IC50 is > 100 µM.

Turning to `CC(C)[C@H](C(=O)O)N1C(=O)/C(=C2/C(=O)Nc3ccc(Br)cc32)SC1=S`, the IC50 was > 100 µM.

The next experiment is described as follows: Activation of CLPB (unknown origin) expressed in Escherichia coli MC4100 using alpha-casein as substrate at 1 to 100 uM by spectrophotometric analysis.
Turning to `C(=C\C=C\Nc1ccccc1)/C=C/Nc1ccccc1`, the outcome was Active.

Another experiment is described as follows: Activation of CLPB (unknown origin) expressed in Escherichia coli MC4100 at 1 to 100 uM by spectrophotometric analysis.
Consider `C(=C\C=C\Nc1ccccc1)/C=C/Nc1ccccc1`, for which the result was Active.

Another experiment can be described thus: Effect on ATPase activity of CLPB (unknown origin) expressed in Escherichia coli MC4100 using alpha-casein as substrate at 1 to 100 uM by spectrophotometric analysis.
For the compound `O=C(Nc1cccc([N+](=O)[O-])c1)c1sc2cccc(Cl)c2c1Cl`, the result was inactive.

With `COCCCN1C(=O)C(=C2C(=O)Nc3ccc(Br)cc32)SC1=S`, the result was inactive.

Take `Cc1c(Cl)c([N+](=O)[O-])nn1CC(=O)Nc1cc(Oc2ccc(Cl)cc2Cl)cc([N+](=O)[O-])c1`: the outcome was inactive.

Consider `CC(C)[C@H](C(=O)O)N1C(=O)/C(=C2/C(=O)Nc3ccc(Br)cc32)SC1=S`, for which the result was inactive.

Another experiment can be described thus: Effect on ATPase activity of CLPB (unknown origin) expressed in Escherichia coli MC4100 at 1 to 100 uM by spectrophotometric analysis.
Consider `O=C(Nc1cccc([N+](=O)[O-])c1)c1sc2cccc(Cl)c2c1Cl`, for which the result was inactive.

For `COCCCN1C(=O)C(=C2C(=O)Nc3ccc(Br)cc32)SC1=S`, the result was inactive.

In the case of `Cc1c(Cl)c([N+](=O)[O-])nn1CC(=O)Nc1cc(Oc2ccc(Cl)cc2Cl)cc([N+](=O)[O-])c1`, the outcome was inactive.

As for `CC(C)[C@H](C(=O)O)N1C(=O)/C(=C2/C(=O)Nc3ccc(Br)cc32)SC1=S`, the result was inactive.

The next experiment is described as follows: Binding affinity to CLPB (unknown origin) expressed in Escherichia coli MC4100 assessed as change in melting temperature at 100 to 200 uM after 30 mins by DSF analysis in presence of ATPgammaS.
As to `O=C(Nc1cccc([N+](=O)[O-])c1)c1sc2cccc(Cl)c2c1Cl`, the shift in melting temperature (ΔTm) (commonly the change in melting temperature against a reference sample) is 4.2 °C.

On to `COCCCN1C(=O)C(=C2C(=O)Nc3ccc(Br)cc32)SC1=S`, for which the ΔTm stood at 14.3 °C.

For `C(=C\C=C\Nc1ccccc1)/C=C/Nc1ccccc1`, the ΔTm came out at 13.3 °C.

On to `CC(C)[C@H](C(=O)O)N1C(=O)/C(=C2/C(=O)Nc3ccc(Br)cc32)SC1=S`, for which the ΔTm turned out to be 19.3 °C.

A short description of the next experiment: Binding affinity to CLPB (unknown origin) expressed in Escherichia coli MC4100 assessed as change in melting temperature at 100 to 200 uM after 30 mins by DSF analysis in presence of ADP. (In DSF a fluorescence change marks the thermal transition of the protein.)
Regarding `O=C(Nc1cccc([N+](=O)[O-])c1)c1sc2cccc(Cl)c2c1Cl`, the ΔTm worked out at 5.2 °C.

In the case of `COCCCN1C(=O)C(=C2C(=O)Nc3ccc(Br)cc32)SC1=S`, the ΔTm is 9.4 °C.

`C(=C\C=C\Nc1ccccc1)/C=C/Nc1ccccc1`: the ΔTm worked out at 12.3 °C.

`Cc1c(Cl)c([N+](=O)[O-])nn1CC(=O)Nc1cc(Oc2ccc(Cl)cc2Cl)cc([N+](=O)[O-])c1`: the ΔTm was found to be 0.7 °C.

Take `CC(C)[C@H](C(=O)O)N1C(=O)/C(=C2/C(=O)Nc3ccc(Br)cc32)SC1=S`: the ΔTm turned out to be 19.9 °C.

The nature of the next experiment: Binding affinity to CLPB (unknown origin) expressed in Escherichia coli MC4100 assessed as change in melting temperature at 100 to 200 uM after 30 mins by DSF analysis in presence of ATP.
With `O=C(Nc1cccc([N+](=O)[O-])c1)c1sc2cccc(Cl)c2c1Cl`, the thermal shift (ΔTm) came to 1.8 °C.

In the case of `COCCCN1C(=O)C(=C2C(=O)Nc3ccc(Br)cc32)SC1=S`, the ΔTm is 13.1 °C.

In the case of `C(=C\C=C\Nc1ccccc1)/C=C/Nc1ccccc1`, the shift in melting temperature (ΔTm) came out at 11.9 °C.

In the case of `Cc1c(Cl)c([N+](=O)[O-])nn1CC(=O)Nc1cc(Oc2ccc(Cl)cc2Cl)cc([N+](=O)[O-])c1`, the shift in melting temperature (ΔTm) came to 2 °C.

`CC(C)[C@H](C(=O)O)N1C(=O)/C(=C2/C(=O)Nc3ccc(Br)cc32)SC1=S`: the ΔTm is 22.1 °C.

The next experiment can be described thus: Binding affinity to CLPB (unknown origin) expressed in Escherichia coli MC4100 assessed as change in melting temperature at 100 to 200 uM after 30 mins by DSF analysis.
As for `O=C(Nc1cccc([N+](=O)[O-])c1)c1sc2cccc(Cl)c2c1Cl`, the ΔTm was determined as 0.8 °C.

As for `COCCCN1C(=O)C(=C2C(=O)Nc3ccc(Br)cc32)SC1=S`, the thermal shift (ΔTm) worked out at 8.4 °C.

On to `C(=C\C=C\Nc1ccccc1)/C=C/Nc1ccccc1`, for which the ΔTm turned out to be 17.5 °C.

As for `Cc1c(Cl)c([N+](=O)[O-])nn1CC(=O)Nc1cc(Oc2ccc(Cl)cc2Cl)cc([N+](=O)[O-])c1`, the ΔTm was found to be 14.3 °C.

As for `CC(C)[C@H](C(=O)O)N1C(=O)/C(=C2/C(=O)Nc3ccc(Br)cc32)SC1=S`, the ΔTm amounted to 24.2 °C.
